Results published in patent US7390820B2, “Substituted quinolinone derivatives and methods of use” (Amgen Inc., priority 2003, dated 2008).

System: Human Umbilical Vein Endothelial cells
Test: HUVEC proliferation assay (VEGF-stimulated)
Format: cell-based
Details: 72 h, CyQuant, read-out: inhibition of VEGF-stimulated HUVEC proliferation
Experimental: Human Umbilical Vein Endothelial cells are purchased from Clonetics, Inc., as cryopreserved cells harvested from a pool of donors. These cells, at passage 1, are thawed and expanded in EBM-2 complete medium, until passage 2 or 3. The cells are trypsinized, washed in DMEM+10% FBS+antibiotics, and spun at 1000 rpm for 10 min. Prior to centrifugation of the cells, a small amount is collected for a cell count. After centrifugation, the medium is discarded, and the cells are resuspended in the appropriate volume of DMEM+10% FBS+antibiotics to achieve a concentration of 3×10^5 cells/mL. Another cell count is performed to confirm the cell concentration. The cells are diluted to 3×10^4 cells/mL in DMEM+10% FBS+antibiotics, and 100 μL of cells are added to a 96-well plate. The cells are incubated at 37° C. for 22 h.
Prior to the completion of the incubation period, compound dilutions are prepared. Five-point, five-fold serial dilutions are prepared in DMSO, at concentrations 400-fold greater than the final concentrations desired. 2.5 μL of each compound dilution are diluted further in a total of 1 mL DMEM+10% FBS+antibiotics (400× dilution). Medium containing 0.25% DMSO is also prepared for the 0 μM compound sample. At the 22 h timepoint, the medium is removed from the cells, and 100 μL of each compound dilution is added. The cells are incubated at 37° C. for 2-3 h.
During the compound pre-incubation period, the growth factors are diluted to the appropriate concentrations. Solutions of DMEM+10% FBS+antibiotics, containing either VEGF or bFGF at the following concentrations: 50, 10, 2, 0.4, 0.08, and 0 ng/mL are prepared. […]
At the completion of the 72 h incubation period, the medium is removed, and the cells are washed twice with PBS. […] The cells are thawed and analyzed using the CyQuant fluorescent dye (Molecular Probes C-7026), following the manufacturer's recommendations. The plates are read on a Victor/Wallac 1420 workstation at 485 nm/530 nm (excitation/emission). Raw data are collected and analyzed using a 4-parameter fit equation in XLFit. IC50 values are then determined.

SMILES	IC50 [µM]
CC(C)(C)c1ccc(N2CCc3cccc(NCc4ccncc4)c3C2=O)cc1 [Example 3, 2-(4-(1,1-Dimethylethyl)phenyl)-8-((4-pyridinylmethyl)amino)-3,4-dihydro-1(2H)-isoquinolinone]	< 0.5
CC(C)(C)c1ccc(-n2ncc3cccc(NCc4c[nH]c5ncccc45)c3c2=O)cc1 [Example 2, 2-(4-(1,1-Dimethylethyl)phenyl)-8-((1H-pyrrolo[2,3-b]pyridin-3-ylmethyl)amino)-1(2H)-phthalazinone]	< 0.5
CC(C)(C)c1ccc(-n2ncc3cccc(NCc4ccncc4)c3c2=O)cc1 [Example 1, 2-(4-(1,1-Dimethylethyl)phenyl)-8-((4-pyridinylmethyl)amino)-1(2H)-phthalazinone]	< 0.5
